≈ marks a conversion by molar mass, not a printed value. Where two headings read alike, the source gives them in different places.
How the values were obtained:
[1] = test system: TNF-α; assay: TNF-α-induced NF-κB activation luciferase reporter counterscreen; type: cell-based; conditions: Homo sapiens
[2] = test system: NF-κB activation via doxorubicin-induced pathway; assay: NF-κB selectivity assay, HEK 293-T cells, doxorubicin induction; type: cell-based, human
[3] = test system: NF-κB activation via PMA/ionomycin; assay: NF-κB selectivity assay, HEK 293-T cells, PMA/ionomycin induction; type: cell-based, human
[4] = Aqueous kinetic solubility; type: physicochemical; conditions: aqueous solution, pH 6.2
[5] = Plasma protein binding, human plasma; type: in vitro ADME
[6] = Plasma protein binding, mouse plasma; type: in vitro ADME
[7] = Plasma stability, human plasma; type: in vitro ADME; conditions: Plasma/PBS, compound at 1 μM, 3 h
[8] = Plasma stability, mouse plasma; type: in vitro ADME; conditions: Plasma/PBS, compound at 1 μM, 3 h
[9] = Metabolic stability in human hepatic microsomes; type: in vitro ADME; conditions: percent remaining at 1 h
[10] = Metabolic stability in mouse hepatic microsomes; type: in vitro ADME; conditions: percent remaining at 1 h
[11] = biological target: T1, CFLT3 (Fms-like tyrosine kinase) (Homo sapiens, UniProt P36888); assay: Ambit KinomeScreen, FLT3; conditions: 10 μM
T1 sequence (P36888 27-993): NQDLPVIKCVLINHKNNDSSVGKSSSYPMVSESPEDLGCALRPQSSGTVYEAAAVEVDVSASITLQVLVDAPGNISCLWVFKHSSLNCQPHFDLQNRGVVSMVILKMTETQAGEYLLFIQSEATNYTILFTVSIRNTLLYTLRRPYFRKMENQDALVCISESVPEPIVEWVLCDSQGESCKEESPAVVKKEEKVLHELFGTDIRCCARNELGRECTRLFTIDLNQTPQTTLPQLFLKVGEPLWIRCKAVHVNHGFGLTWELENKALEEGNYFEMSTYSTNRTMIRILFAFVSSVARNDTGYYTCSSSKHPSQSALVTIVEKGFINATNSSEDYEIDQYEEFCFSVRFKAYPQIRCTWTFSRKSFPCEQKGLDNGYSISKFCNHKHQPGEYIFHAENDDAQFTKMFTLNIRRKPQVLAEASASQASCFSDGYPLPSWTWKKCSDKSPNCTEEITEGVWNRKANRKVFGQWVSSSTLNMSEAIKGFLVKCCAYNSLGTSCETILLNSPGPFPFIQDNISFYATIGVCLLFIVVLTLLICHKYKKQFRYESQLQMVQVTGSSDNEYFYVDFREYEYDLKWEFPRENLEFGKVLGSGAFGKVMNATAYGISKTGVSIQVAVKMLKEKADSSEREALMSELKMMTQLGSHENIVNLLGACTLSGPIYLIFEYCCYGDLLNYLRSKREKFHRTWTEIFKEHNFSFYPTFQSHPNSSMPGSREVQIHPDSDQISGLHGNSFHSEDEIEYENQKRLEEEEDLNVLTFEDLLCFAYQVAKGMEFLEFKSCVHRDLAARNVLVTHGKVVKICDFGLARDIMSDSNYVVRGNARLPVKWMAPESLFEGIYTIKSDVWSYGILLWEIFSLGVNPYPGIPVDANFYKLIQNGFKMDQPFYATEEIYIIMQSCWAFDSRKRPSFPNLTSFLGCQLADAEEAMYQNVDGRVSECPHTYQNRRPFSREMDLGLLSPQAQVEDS

[12] = test system: 443 kinases; assay: Ambit KinomeScreen panel; conditions: 10 μM
[13] = biological target: RIOK2 (right open reading frame) (Homo sapiens, UniProt Q9BVS4); assay: Ambit KinomeScreen, RIOK2; conditions: 10 μM
[14] = test system: NCI 60 human tumor cell line
[15] = read-out: TNF-α (NOD1-dependent) IC50

Chain of RIOK2 (right open reading frame) (Q9BVS4 whole entry, species assumed): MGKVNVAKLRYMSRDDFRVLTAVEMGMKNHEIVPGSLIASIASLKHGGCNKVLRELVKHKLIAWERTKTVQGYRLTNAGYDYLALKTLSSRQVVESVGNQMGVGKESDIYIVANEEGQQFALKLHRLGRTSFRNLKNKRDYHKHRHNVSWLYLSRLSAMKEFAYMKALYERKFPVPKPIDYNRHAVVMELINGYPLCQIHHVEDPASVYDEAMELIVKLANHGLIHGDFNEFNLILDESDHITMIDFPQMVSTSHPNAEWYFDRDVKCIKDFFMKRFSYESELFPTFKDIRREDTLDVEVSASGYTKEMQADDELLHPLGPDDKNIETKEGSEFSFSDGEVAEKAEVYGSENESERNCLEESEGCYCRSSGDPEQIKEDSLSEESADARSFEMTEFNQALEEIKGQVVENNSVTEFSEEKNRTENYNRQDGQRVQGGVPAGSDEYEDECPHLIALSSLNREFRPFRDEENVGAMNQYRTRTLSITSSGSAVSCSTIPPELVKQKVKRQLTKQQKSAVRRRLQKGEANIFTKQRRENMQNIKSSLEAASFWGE

Structure (SMILES)	IC50 [1, 15]	IC50 ([1]; read-out: TNF-α IC50)	other results
Cc1ccc(S(=O)(=O)n2c(N)nc3ccccc32)cc1 [1c]	> 20 µM	–	inhibition of NF-κB activation via doxorubicin-induced pathway [2]: did not inhibit; inhibition of NF-κB activation via PMA/ionomycin [3]: did not inhibit; solubility at 18 h [4]: 2 µg/mL (≈ 6.96 µM); plasma protein binding ([5]; 1 μM): 97.5 % bound; plasma protein binding ([5]; 10 μM): 97.7 % bound; plasma protein binding ([6]; 1 μM): 95.0 % bound; plasma protein binding ([6]; 10 μM): 95.5 % bound; plasma stability [7]: 100/100 % remaining; plasma stability [8]: 100/100 % remaining; microsome stability [9]: 41.8 % remaining; microsome stability [10]: 0.8 % remaining; Inhibitory activity (reported as % control), CFLT3 [11]: 27 % C; activity against 443 kinases [12]: little activity; Inhibitory activity (reported as % control), RIOK2 [13]: 6 % C; cytotoxicity in NCI 60 screen [14]: noncytotoxic
Nc1nc2ccccc2n1S(=O)(=O)c1ccccc1 [4c]	> 20 µM	–	–
Cc1ccc(S(=O)(=O)n2cnc3ccccc32)cc1 [6c]	> 20 µM	–	–
CC(=O)c1ccc(N2CCN(S(=O)(=O)c3ccc4c(c3)CC(C)N4C(=O)C3CC3)CC2)cc1 (stereo not shown) [7a]	–	> 20 µM	–
Cc1ccc(S(=O)(=O)n2c(S)nc3ccc(C)cc32)cc1 [8c]	> 20 µM	–	–
Cc1ccc(S(=O)(=O)n2c(N)nc3cc(C)c(C)cc32)cc1 [9c]	> 20 µM	–	–
Nc1nc2ccccc2n1Cc1ccc(Cl)cc1 [10c]	> 20 µM	–	–
Nc1nc2ccccc2n1CCC(=O)c1ccc(Cl)cc1 [13c]	> 20 µM	–	–
COc1ccc(C(=O)Cn2c(N)nc3ccccc32)cc1 [14c]	> 20 µM	–	–
Nc1nc2ccccc2n1C(=O)Cc1ccccc1 [15c]	> 20 µM	–	–
O=C(C1CC1)N1CCc2cc(S(=O)(=O)N3CCN(c4ccc(Cl)cc4)CC3)ccc21 [18a]	–	> 20 µM	–
N#Cc1ccc(N2CCN(S(=O)(=O)c3ccc4c(c3)CCN4C(=O)C3CC3)CC2)cc1 [19a]	–	> 20 µM	–
CC(=O)c1ccc(N2CCN(S(=O)(=O)c3ccc4c(c3)CCN4C(=O)C3CC3)CC2)cc1 [20a]	–	> 20 µM	–
O=C(C1CC1)N1CCc2cc(S(=O)(=O)N3CCN(c4ccc([N+](=O)[O-])cc4)CC3)ccc21 [21a]	–	> 20 µM	–
CCC(=O)N1CCc2cc(S(=O)(=O)N3CCN(c4ccc(C(C)=O)cc4)CC3)ccc21 [22a]	–	> 20 µM	–
CCC(=O)N1CCc2cc(S(=O)(=O)N3CCN(c4ccc([N+](=O)[O-])cc4)CC3)ccc21 [23a]	–	> 20 µM	–
CC(=O)c1ccc(N2CCN(S(=O)(=O)c3ccc4c(c3)CCN4C(C)=O)CC2)cc1 [25a]	–	> 20 µM	–
CC(=O)N1CCc2cc(S(=O)(=O)N3CCN(c4ccc([N+](=O)[O-])cc4)CC3)ccc21 [26a]	–	> 20 µM	–
CC(=O)N1CCc2cc(S(=O)(=O)N3CCN(c4ccc(Cl)cc4)CC3)ccc21 [27a]	–	> 20 µM	–

From paper PMC3193285 (ACS Medicinal Chemistry Letters, 2011)
